Results taken from US10933077B2, “TLR4 inhibitors for the treatment of human infectious and inflammatory disorders” (UNIVERSITY OF PITTSBURGH—OF THE COMMONWEALTH SYSTEM OF …, priority 2010, dated 2021).

target: T1, TLR4 (Mus musculus, UniProt Q9JHF9+Q9QUK6); test: CFW endotoxemia assay (observation of behavior and phenotype after LPS); type: in vivo; settings: CFW mice, 20 nanomoles compound i.p. 30 minutes prior to LPS 2 mg/kg, 6 hours; listed as “Hits”
T1 construct: Swiss Webster (CFW) and NFkB-luciferase reporter mice were obtained from The Jackson Laboratory; tissue The Jackson Laboratory; host or cells: whole live Swiss Webster (CFW) mice
T1 sequence (Q9QUK6 26-835): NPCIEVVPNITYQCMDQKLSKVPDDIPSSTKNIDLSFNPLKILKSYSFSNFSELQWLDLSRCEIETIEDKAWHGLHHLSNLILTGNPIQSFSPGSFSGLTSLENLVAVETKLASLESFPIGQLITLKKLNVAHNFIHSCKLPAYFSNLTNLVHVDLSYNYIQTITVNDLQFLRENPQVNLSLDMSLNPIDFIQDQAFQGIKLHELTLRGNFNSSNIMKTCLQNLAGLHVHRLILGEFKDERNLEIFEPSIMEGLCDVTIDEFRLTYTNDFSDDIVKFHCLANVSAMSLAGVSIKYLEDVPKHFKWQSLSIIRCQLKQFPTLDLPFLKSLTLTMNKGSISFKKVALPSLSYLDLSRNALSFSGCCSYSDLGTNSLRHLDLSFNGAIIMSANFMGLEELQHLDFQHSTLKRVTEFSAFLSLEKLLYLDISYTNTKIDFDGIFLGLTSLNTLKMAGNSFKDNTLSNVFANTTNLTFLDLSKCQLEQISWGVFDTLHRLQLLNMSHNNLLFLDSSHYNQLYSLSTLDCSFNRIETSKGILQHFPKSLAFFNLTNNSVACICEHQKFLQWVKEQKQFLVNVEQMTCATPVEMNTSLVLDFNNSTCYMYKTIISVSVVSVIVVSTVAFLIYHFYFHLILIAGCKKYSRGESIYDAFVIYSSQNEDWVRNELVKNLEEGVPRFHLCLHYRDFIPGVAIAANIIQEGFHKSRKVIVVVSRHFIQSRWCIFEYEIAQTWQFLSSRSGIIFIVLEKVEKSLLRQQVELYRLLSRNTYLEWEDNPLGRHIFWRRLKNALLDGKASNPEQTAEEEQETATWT
T1 sequence (Q9JHF9 19-160): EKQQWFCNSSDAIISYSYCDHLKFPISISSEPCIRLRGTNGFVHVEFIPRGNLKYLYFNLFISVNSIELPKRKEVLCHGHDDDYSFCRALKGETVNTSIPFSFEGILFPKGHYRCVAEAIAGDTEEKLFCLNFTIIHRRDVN
Experimental: Compound preparation and delivery. All 65 identified compounds were received in solid form and stored at 4° C. until use. Stock solutions of each compound were made by dissolving the appropriate amount of each compound in dimethyl sulfoxide (DMSO) to yield a concentration of 10 mM. Immediately prior to injection into experimental animals, the compounds were diluted to an experimental concentration of 100 uM in phosphate-buffered saline (PBS). Total concentration of DMSO in the final diluted drug was 1%. Compounds were closely examined to insure that no precipitate formed prior to injection and were stored on ice until injection. All compounds were given via intraperitoneal (i.p.) injection in a total volume of 200 ul using a 1 cc syringe and 27 gauge needle. In all experiments listed below, the compounds were delivered to the experimental mice 30 minutes prior to injection with lipopolysaccharide (LPS) to induce endotoxemia. Control animals not receiving compound received 1% DMSO dissolved in PBS. Following drug injection, the mice were observed closely in their cages for signs of immediate toxicity or adverse reaction to the drug, including but not limited to piloerection, tachypnea, bleeding, abnormal or aggressive behavior, signs of altered mental status, and level of activity.
Induction of endotoxemia. All mice were housed and cared for at the Rangos Research Center, Children's Hospital of Pittsburgh (Pittsburgh, Pa.). All experiments were approved by the Children's Hospital of Pittsburgh Animal Care Committee and by the Institutional Review Board of the University of Pittsburgh. Swiss Webster (CFW) and NFkB-luciferase reporter mice were obtained from The Jackson Laboratory. Throughout the course of all experiments, mice were housed 4 per cage with access to food, water, and standard bedding. Endotoxemia was induced in all experiments by i.p. injection of LPS (Escherichia coli 0111:B4 purified by gel filtration chromatography, >99% pure, Sigma-Aldrich) at a dose of 2 mg/kg for 6 hours. At the end of each experiment, all animals were euthanized by CO2 hypoxia and cervical dislocation.
CFW endotoxemia assay. In order to effectively screen the entire compound list, the remaining compounds (7-60) were screened in a model of endotoxemia using CFW mice. Three separate experiments were performed: First, Compound 7 along with a repeat of compound 4 (n=3 mice per compound, mice age 5 weeks) were tested. Controls were saline injection alone (n=1), LPS 2 mg/kg 6 hrs (n=2). Second, compounds 3, 4, 6, 8-32 were tested (n=1 mouse each, 3 week old mice). Controls were saline injection alone (n=1), LPS 2 mg/kg 6 hrs (n=2), LPS 10 mg/kg 6 hrs (n=2), Bay 11 pretreatment 20 mg/kg for 30 minutes prior to LPS 2 mg/kg 6 hrs. Third, compounds 8, 16, 33-60 were tested (n=1 mouse each, 3 week old mice). Controls were saline injection alone (n=1), LPS 2 mg/kg 6 hrs (n=2), Bay 11 pretreatment 20 mg/kg for 30 minutes prior to LPS 2 mg/kg 6 hrs. Following 6 hours of endotoxemia, mice from the second and third experiments were observed within their cages and videotaped to document behavior and phenotypic differences to assess for an inhibitory effect of compound pretreatment on the effects of LPS. Mice were identified by a number previously placed using permanent marker on their tails. The degree of piloerection, tachypnea, location in the cage (center of cage versus corners), degree of activity, and behavior relative to other animals was observed and documented via video for each mouse.
Less activity, tachypnea, and piloerection are considered symptomatic of endotoxemia, so a decrease in these is consistent with TLR inhibition by the administered compound. Note that compounds listed as negatives may still be T4Ics at other concentrations or conditions.

Row | Molecule | Observation (Compound “Hits”)
1 | CCCCCCCCCCCCCCCCOC1OC(COC(C)=O)C(OC(C)=O)C(OC(C)=O)C1NC(C)=O (centres unmarked) [Compound 61, [5-acetamido-3-acetyloxy-2-(acetyloxymethyl)-6-hexadecoxy-oxan-4-yl] acetate] | Less piloerection, less tachypnea
2 | CCCCCCO[C@@H]1O[C@H](COC(C)=O)[C@@H](OC(C)=O)[C@H](OC(C)=O)[C@H]1NC(C)=O [Compound 36, hexyl 3,4,6-tri-O-acetyl-2-(acetylamino)-2-deoxy-beta-D-glucopyranoside] | More active, crawled over other mice, less piloerection
3 | CCO[C@@H]1O[C@H](CO)[C@@H](O)[C@H](O)[C@H]1NC(C)=O [Compound 54, ethyl 2-(acetylamino)-2-deoxy-beta-D-glycero-hexopyranoside] | Less piloerection, less tachypnea
4 | CC(=O)NC1C(OC(C)C(=O)O)[C@H](O)C(CO)O[C@H]1O (stereo partly drawn) [Compound 30, 2-((2R,5S)-3-acetamido-2,5-dihydroxy-6-(hydroxymethyl)tetrahydro-2H-pyran-4-yloxy)propanoic acid] | Less tachypnea, more mobile
5 | CC(=O)N[C@H]1[C@H](OC[C@H]2O[C@@H]3OC(C)(C)O[C@@H]3[C@H]3OC(C)(C)O[C@H]32)O[C@H](CO)[C@@H](O)[C@@H]1O [Compound 21, N-((2R,3R,4R,5S,6R)-4,5-dihydroxy-6-(hydroxymethyl)-2-(((3aR,5R,5aS,8aS,8bR)-2,2,7,7-tetramethyltetrahydro-3aH-bis[1,3]dioxolo[4,5-b:4′,5′-d]pyran-5-yl)methoxy)tetrahydro-2H-pyran-3-yl) acetamide] | More active, crawled over other mice, less piloerection
6 | C=CCO[C@@H]1O[C@H](CO)[C@@H](O)[C@H](O)[C@H]1NC(C)=O [Compound 50, allyl 2-(acetylamino)-2-deoxy-beta-D-glycero-hexopyranoside] | More active
7 | CC(=O)CC1OC(OC2C(NC(C)=O)C(O)OC(CO)C2OS(=O)(=O)O)C(O)C(O)C1O [Compound 43, 2-(acetylamino)-2-deoxy-3-O-(6,8-dideoxy-beta-L-glycero-octopyranosyl-7-ulose)-4-O-sulfo-L-erythro-hexopyranose] | More active, crawled over other mice, less piloerection
8 | O=P(O)(O)OCC1OC(OP(=O)(O)O)C(O)[C@H](O)[C@@H]1O (stereo partly drawn) [Compound 8, cyclohexanamine compound with 1,6-di-O-phosphono-beta-D-glycero-hexopyranose (4:1) hydrate] | More mobile, less piloerection
9 | CC(=O)N[C@H]1[C@H](O[C@H]2[C@H](O)[C@@H](O)[C@H](O[C@H]3[C@H](O)[C@@H](CO)OC(O)[C@@H]3NC(C)=O)O[C@@H]2C(=O)O)O[C@H](CO)[C@@H](O)[C@H]1O[C@H]1O[C@H](C(=O)O)[C@@H](O)[C@H](O)[C@H]1O (stereo partly drawn) [Compound 42, 2-(acetylamino)-3-O-{4-O-[2-(acetylamino)-2-deoxy-3-O-alpha-D-xylo-hexopyranuronosyl-beta-D-ribo-hexopyranosyl]-beta-D-xylo-hexopyranuronosyl}-2-deoxy-D-glucopyranose] | Less tachypnea, more mobile
10 | CCOC1OC(CO)C(O)C(O)C1NC(C)=O (centres unmarked) [Compound 63, N-[2-ethoxy-4,5-dihydroxy-6-(hydroxymethyl)oxan-3-yl]acetamide] | More mobile, less piloerection
11 | C=CCO[C@@H]1O[C@H](COC(C)=O)[C@H](OC(C)=O)[C@H](OC(C)=O)[C@H]1NC(C)=O [Compound 47, allyl 3,4,6-tri-O-acetyl-2-(acetylamino)-2-deoxy-beta-D-lyxo-hexopyranoside] | More active, crawled over other mice, less piloerection

same assay, conditions: CFW mice, 20 nanomoles compound i.p. 30 minutes prior to LPS 2 mg/kg, 6 hours; listed as “Negatives”

Row | Molecule | Observation (Compound “Negatives”)
12 | CC(=O)N[C@H]1[C@H](OC[C@H]2O[C@@H]3OC4(CCCCC4)O[C@@H]3[C@H]3OC4(CCCCC4)O[C@H]32)O[C@H](CO)[C@@H](O)[C@@H]1O [Compound 37, N-[(2R,3R,4R,5S,6R)-2-[(1′S,2′R,6′R,8′R,9′S)-dispiro[cyclohexane-1,4′-[3,5,7,10,12]pentaoxatricyclo[7.3.0.0^{2,6}]dodecane-11′,1″-cyclohexane]-8′-ylmethoxy]-4,5-dihydroxy-6-(hydroxymethyl)oxan-3-yl]acetamide] | More tachypneic, less active
13 | CC(=O)N[C@@H]1C[C@H](O)[C@@H](CO)O[C@H]1O[C@H]1[C@H](O)[C@@H](O)[C@H](O)O[C@@H]1C(=O)[O-].[Na+] [Compound 32, sodium (2S,3S,4R,5R,6R)-3-((2S,3R,5S,6R)-3-acetamido-5-hydroxy-6-(hydroxymethyl)tetrahydro-2H-pyran-2-yloxy)-4,5,6-trihydroxytetrahydro-2H-pyran-2-carboxylate] | More tachypneic, more piloerection
14 | CC(=O)N[C@H]1[C@H](O[C@H]2[C@H](O)[C@@H](NC(C)=O)C(O)O[C@@H]2CO)O[C@H](CO)[C@@H](O[C@@H]2O[C@H](CO)[C@@H](O)[C@H](O)[C@H]2NC(C)=O)[C@@H]1O (stereo partly drawn) [Compound 1, 2-(acetylamino)-4-O-{2-(acetylamino)-4-O-[2-(acetylamino)-2-deoxy-beta-D-glucopyranosyl]-2-deoxy-beta-D-glucopyranosyl}-2-deoxy-D-glucopyranose] | More tachypnea, rigors
15 | CC(=O)N[C@@H]1[C@@H](O)[C@@H](O)[C@@H](CO)O[C@@H]1O [Compound 31, 2-(acetylamino)-2-deoxy-alpha-D-lyxo-hexopyranose] | More tachypneic, more piloerection
16 | (2R,3S,4R,5R,6R)-5-acetamido-2-(acetoxymethyl)-6-(((3aR,5R,5aS,8aS,8bR)-2,2,7,7-tetramethyltetrahydro-3aH-bis[1,3]dioxolo[4,5-b:4′,5′-d]pyran-5-yl)methoxy)tetrahydro-2H-pyran-3,4-diyl-diacetate [Compound 38] | Less active
17 | COC1OC(COC(C)=O)C(OC(C)=O)C(OC(C)=O)C1NC(C)=O (centres unmarked) [Compound 62, (5-acetamido-3,4-diacetyloxy-6-methoxy-oxan-2-yl)methyl acetate] | Nearly static, little movement, rigors
